*1 amine or outer side, *2 acyl side, *3 side chain or, on linkers, in order; H or OH if unused. Where a SMILES comes first, the peptide text is derived from it. Bridges are numbered along the chain shown (N, C = ends). [ ]: non-standard residue; d: D form. X1 = CC(C)NC[C@H](N[*:1])C(=O)[*:2]; Cha = N[C@@H](CC1CCCCC1)C(=O)O; Tle = CC(C)(C)[C@H](N)C(=O)O; dDab = NCC[C@@H](N)C(=O)O; Orn = NCCC[C@H](N)C(=O)O; Dab = NCC[C@H](N)C(=O)O; Dap = NC[C@H](N)C(=O)O; Sar = CNCC(=O)O
How the values were obtained:
Type in all cases: cell-based
[1] = test system: human red blood cells (hRBC); assay: Hemolysis of human red blood cells; conditions: red cells of human, 1 h, 100 μg/mL
Procedure, shortened: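 hRBC washed 3× PBS; 20% v/v, ~0.9×10^9 cells/mL final. Peptide 100 μg/mL, 1 h, 37° C., 300 rpm. Spin, supernatant diluted 8×, OD540. 0% = PBS + 0.001% acetic acid; 100% = 2.5% Triton X-100. % hemolysis = OD540 peptide/OD540 full lysis × 100.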

[2] = test system: Acinetobacter baumannii 872842; conditions: 872842
[3] = test system: Escherichia coli ATCC 25922; conditions: ATCC 25922
Procedure, shortened: (§1)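 Minimal inhibitory concentrations were recorded in μg/mL after the strains grew 18-20 hours at 35° C with two-fold serial peptide dilutions. The medium was Mueller-Hinton II (cation-adjusted) with 0.002% Polysorbate 80, and the inoculum was about 10^6 CFU/mL.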

[4] = test system: Klebsiella pneumoniae 968733; conditions: 968733
Escherichia coli 926415 = conditions: 926415
[5] = test system: Acinetobacter baumannii DSM 30008; conditions: DSM 30008
Procedure, shortened: as §1

[6] = test system: Pseudomonas aeruginosa ATCC 27853; conditions: ATCC 27853
Procedure, shortened: as §1

[7] = test system: Klebsiella pneumoniae SSI #3010; conditions: SSI #3010
Procedure, shortened: as §1

Row | SMILES | Hemolysis at 100 μg/mL [1] [%] | Acinetobacter baumannii 872842 MIC [2] [mg/L] | Escherichia coli ATCC 25922 MIC [3] [mg/L] | Klebsiella pneumoniae 968733 MIC [4] [mg/L] | Escherichia coli 926415 MIC (Escherichia coli 926415) [mg/L] | Acinetobacter baumannii DSM 30008 MIC [5] [mg/L] | Pseudomonas aeruginosa ATCC 27853 MIC [6] [mg/L] | Klebsiella pneumoniae SSI #3010 MIC [7] [mg/L]
1 | CC(=O)N[C@@H](Cc1c[nH]c2ccccc12)C(=O)N[C@H]1CSSC[C@@H](C(=O)N[C@@H](CCCN)C(=O)N[C@H](CCN)C(=O)N[C@@H](CCN)C(=O)N[C@@H](CCN)C(=O)N[C@H]2CCNC(=O)[C@H]([C@@H](C)O)NC(=O)[C@H](CCN)NC(=O)[C@H](CCN)NC(=O)[C@H](CC(C)C)NC(=O)[C@@H](Cc3ccccc3)NC(=O)[C@H](CCN)NC2=O)NC(=O)[C@H](Cc2ccc(O)cc2)NC(=O)[C@H](CN)NC(=O)[C@H](Cc2ccccc2)NC(=O)[C@H](Cc2ccccc2)NC(=O)[C@H]2CCCN2C(=O)[C@H](CO)NC(=O)[C@H](C)NC(=O)[C@H](C(C)(C)C)NC1=O [Ex. 137] (Ac-WC[Tle]AS[dP]FF[Dap]YC[Orn][dDab][Dab][Dab][Dab][Dab][dF]L[Dab][Dab]T; disulfide 2-11; lactam 16-C) | 4 | 0.5 | 0.25 | 0.5 | 0.5 | 0.5 | 1 | 0.5
2 | CC(=O)N[C@@H](Cc1c[nH]c2ccccc12)C(=O)N[C@H]1CSSC[C@@H](C(=O)N[C@@H](CCCN)C(=O)N[C@H](C(=O)N[C@@H](CCN)C(=O)N[C@@H](CCN)C(=O)N[C@H]2CCNC(=O)[C@H]([C@@H](C)O)NC(=O)[C@H](CCN)NC(=O)[C@H](CCN)NC(=O)[C@H](CC(C)C)NC(=O)[C@@H](Cc3ccccc3)NC(=O)[C@H](CCN)NC2=O)[C@@H](C)O)NC(=O)[C@H](Cc2ccc(O)cc2)NC(=O)[C@H](Cc2c[nH]cn2)NC(=O)[C@H](Cc2c[nH]c3ccccc23)NC(=O)[C@@H]2CCCN2C(=O)[C@H]2CCCN2C(=O)[C@H](CO)NC(=O)[C@H](C)NC(=O)[C@H](C(C)(C)C)NC1=O [Ex. 138] (Ac-WC[Tle]AS[dP]PWHYC[Orn]T[Dab][Dab][Dab][Dab][dF]L[Dab][Dab]T; disulfide 2-11; lactam 16-C) | 3 | 1 | 0.25 | 2 | 4 | 0.5 | 4 | 0.5
3 | CC(=O)N[C@@H](Cc1c[nH]c2ccccc12)C(=O)N[C@H]1CSSC[C@@H](C(=O)N[C@@H](CCCN)C(=O)N[C@H](C(=O)N[C@@H](CCN)C(=O)N[C@@H](CCN)C(=O)N[C@H]2CCNC(=O)[C@H]([C@@H](C)O)NC(=O)[C@H](CCN)NC(=O)[C@H](CCN)NC(=O)[C@H](CC(C)C)NC(=O)[C@@H](Cc3ccccc3)NC(=O)[C@H](CCN)NC2=O)[C@@H](C)O)NC(=O)[C@H](CC2CCCCC2)NC(=O)[C@H](CNC(C)C)NC(=O)[C@H](Cc2c[nH]c3ccccc23)NC(=O)[C@@H]2CCCN2C(=O)[C@H]2CCCN2C(=O)[C@H](CO)NC(=O)[C@H](C)NC(=O)[C@H](C(C)(C)C)NC1=O [Ex. 139] (Ac-WC[Tle]AS[dP]PW[X1][Cha]C[Orn]T[Dab][Dab][Dab][Dab][dF]L[Dab][Dab]T; disulfide 2-11; lactam 16-C) | 4 | 2 | 2 | 4 | 1 | 1 | 2 | 2
4 | CC(C)C[C@@H]1NC(=O)[C@@H](CC(C)C)NC(=O)[C@H](CCN)NC(=O)[C@@H](NC(=O)[C@H](CCN)NC(=O)[C@@H](NC(=O)[C@H](CCN)NC(=O)CN(C)C(=O)[C@@H]2CSSC[C@H](NC(=O)[C@@H](N)Cc3c[nH]c4ccccc34)C(=O)N[C@@H](C(C)(C)C)C(=O)N[C@@H](Cc3ccc(O)cc3)C(=O)N[C@@H](CO)C(=O)N3CCC[C@@H]3C(=O)N3CCC[C@H]3C(=O)N[C@@H](CC(C)C)C(=O)N[C@@H](CN)C(=O)N[C@@H](Cc3ccc(O)cc3)C(=O)N2)[C@@H](C)O)CCNC(=O)[C@H]([C@@H](C)O)NC(=O)[C@H](CCN)NC(=O)[C@H](CCN)NC1=O [Ex. 140] (H-WC[Tle]YS[dP]PL[Dap]YC[Sar][Dab]T[Dab][Dab][Dab][dL]L[Dab][Dab]T; disulfide 2-11; lactam 16-C) | <1 | 0.125 | 0.0625 | 1 | 0.125 | 0.125 | 0.5 | 0.0625

— patent US10829520B2, “Beta-hairpin peptidomimetics” (POLYPHOR AG, priority 2015, dated 2020)
